Data reported in patent US20250248393A1, “METHOD OF RELEASING A SEMIOCHEMICAL IN THE ENVIRONEMENT BY PASSIVE DIFFUSION, SYSTEM AND MEANS, ESPECIALLY STICKS, TO THIS END, AND USES THEREOF” (SIGNS, priority 2024, published 2025).

Assays:
Assay type in all cases: physicochemical
[1] = DAP PCDS direct diffusion (SPME-GC/MS); settings: DAP/PCDS diffuser, 40 mL, 6 capillaries
[2] = F3 direct diffusion and mass loss, 40 mL and eight sticks with a refill; settings: F3, eight sticks
Description: To that purpose, three devices containing 40 mL of F3 feline facial pheromone product and eight rattan sticks were prepared and left on diffusion. Every Monday, Wednesday and Friday, the diffusion of the pheromone in air was checked by analysis by gas chromatography coupled with mass spectrometer (GC/MS) and SPME (solid phase microextraction) until there was no liquid left. Then, the solution was refilled and a second study of the diffusion of the pheromone was performed.
Experimentally, the studied device was taken and placed into a closed space under identical conditions than in section E/, and for analyzing the same data.
Each measuring day, the devices were weighed and the level of the solution in the flask was controlled.

[3] = F3 sticks device, direct diffusion, 40 mL and four sticks (SPME GC/MS); settings: four sticks
Description: Three devices containing 40 mL of F3 feline facial pheromone product and four rattan sticks were prepared and left on diffusion. Every Monday, Wednesday and Friday, the diffusion of the pheromone in air was checked by analysis by gas chromatography coupled with mass spectrometer (GC/MS) and SPME (solid phase microextraction) until there is no liquid left (about 22 days).
To that purpose, the studied device was taken and placed into a closed space (in our case an aquarium turned over) containing the SPME fiber as shown on FIG. 24.
The SPME fiber was left for two hours to give the time for the molecules to adsorb on the fiber, then the fiber was injected into the GC/MS instrument for analysis.
Analysis were carried out using gas chromatography with mass spectrometer. The instrument was a GCMS QP2010SE® from Shimadzu with an AOC6000® Autosampler. The separation was performed on a ZB-5 MS® column (30 m×0.25 mm×0.25 μm, stationary phase: 95% Dimethylpolysiloxane, 5% Phenyl-Arylene) from Phenomenex. The GC oven temperature was initially held at 100° C. for 1 minute then increased at a pace of 10° C./min to 120° C. and left at this temperature for 3 minutes. Finally, the oven temperature was increased at a pace of 10° C./min to 240° C. and left at this temperature for 10 minutes. The carrier gas was helium at 1 mL/min. Analysis were performed in split mode using a split/splitless injector (Temperature: 250° C., split: 1:20). The SPME fiber was directly injected into the injector and left for 30 minutes. Separated molecules were detected using a mass spectrometer which was operated in electron impact ionization (EI) in both full scan (FS) and single ion monitoring (SIM) modes, so called FASST (Fast Automated SCAN/SIM type) mode. The interface temperature was set at 300° C. and electron impact source temperature at 250° C. The analyser was a quadrupole.
For the measurement of the relative quantity of active ingredient spreading in air, the area of the chromatographic peak corresponding to the compound was measured using Shimadzu GCMS-Solution software.

[4] = Direct diffusion of diffuser blocks (SPME GC/MS); settings: despecified pheromone 2%, 4 weeks
Description: Analyses were carried out using gas chromatography (GC) coupled to a mass spectrometer (MS) detector, a technique commonly referred to as GCMS. The molecules of interest were extracted using the Solid Phase Micro-Extraction (SPME) technique. The instrument used was the following: QP2010SE® from Shimadzu (See FIG. 4).
AOC 6000® automatic feeder • Extraction/SPME fiber: polyacrylate/Fused silica (85 μm), 23 Ga. • Adsorption time: 2 hours (exposure time of fiber above block) (See FIG. 4) • Desorption time: 30 minutes (fiber exposure time in injector) • Fiber-block distance: 2 cm • Injection: split/splitless injector • Temperature: 250° C., split 50 mode. • Separation: ZB-FFAP® column (Phénomenex), length: 30 m, diameter: 250 μm, film thickness: […]
• Carrier gas: Helium (He) • Analysis time: 18 min (not including time to return to equilibrium between each analysis injection • Detection: mass spectrometer with electron impact source/analyzer: quadrupole. • Source temperature: 200° C. • Interface temperature: 250° C. • Scan m/z 50 to m/z 500 • SIM with ions 55, 66 and 74.
Analyses were carried out in triplicate to verify reproducibility of results.
With the SPME method, results are evaluated by measuring the chromatographic peak area. The data have been plotted on diffusion curve (see FIGS. 5 and 6).

SMILES: CCCCCCCCCCCCCCCC(=O)OC [methyl palmitate, methyl hexadecanoate]
- direct diffusion over time [1]: slight increase over time
- intensity of direct diffusion [2]: less intensity
- direct diffusion over time [3]: slight increase of the diffusion over time
- direct diffusion from the diffuser block [4]: diffuse better

SMILES: CCCCCCCC/C=C\CCCCCCCC(=O)OC [methyl oleate, methyl (Z)-octadec-9-enoate]
- direct diffusion over time [1]: slight increase over time
- intensity of direct diffusion [2]: less intensity
- direct diffusion over time [3]: slight increase of the diffusion over time
- direct diffusion from the diffuser block [4]: lowest intensity
